In ChEMBL document CHEMBL1150068, “Antimalarial activity of sesquiterpenes from the marine sponge Acanthella klethra” (J Nat Prod, 1992):
Values after ≈ are worked out from the molar mass of the structure shown.

Columns and labels:
[1] = test system: Plasmodium falciparum; test: Antimalarial activity against chloroquine-resistant Plasmodium falciparum W2; type: functional, organism-based
[2] = test system: Plasmodium falciparum; test: Antimalarial activity against chloroquine-sensitive Plasmodium falciparum D6; type: functional, organism-based
[3] = test system: KB; test: Cytotoxicity against human KB cells; type: cell-based

| SMILES | IC50 [1] [µg/mL] | IC50 [2] [µg/mL] | IC50 [3] [µg/mL] |
| --- | --- | --- | --- |
| OC(c1cc(C(F)(F)F)nc2c(C(F)(F)F)cccc12)C1CCCCN1 (stereo not drawn) [MEFLOQUINE] | 0.00049 (≈ 0.0013 µM) | 0.0082 (≈ 0.0217 µM) |  |
| C=C(C)[C@H]1CC[C@@]2(C)CCC[C@@](C)(N=C=S)[C@@H]2C1 | 0.55 (≈ 2.09 µM) | 4 (≈ 15.2 µM) | > 20 |
| [C-]#[N+][C@@H]1[C@H](C(C)C)CC[C@@H](C)[C@@]12C=C(C)CC2 [AXISONITRILE 3] | 0.0165 (≈ 0.0713 µM) | 0.142 (≈ 0.614 µM) | > 20 |
| C=C(C)[C@@H]1CC[C@@]2(C)CCC[C@@](C)(N=C=S)[C@@H]2C1 | > 10 | > 10 | > 20 |
| C[C@@H]1CC[C@H]2[C@@H](C)C(=O)O[C@@H]3O[C@@]4(C)CC[C@@H]1[C@]32OO4 [ARTEMISININ] | 0.00071 (≈ 0.00251 µM) | 0.0041 (≈ 0.0145 µM) | > 20 |
| C[C@H]1CCC[C@]2(C)CC[C@H](C(C)(C)N=C=S)C=C12 | 0.61 (≈ 2.32 µM) | 2.24 (≈ 8.5 µM) | > 20 |
| C=C[C@H]1CN2CC[C@H]1C[C@H]2[C@H](O)c1ccnc2ccc(OC)cc12 [QUININE] | 0.0238 (≈ 0.0734 µM) | 0.0102 (≈ 0.0314 µM) | > 20 |
| CC1=C[C@]2(CC1)[C@H](C)CC[C@@H](C(C)C)[C@H]2N=C=S | 3.11 (≈ 11.8 µM) | 12.3 (≈ 46.8 µM) | > 20 |
